According to patent US20110306546A1, “COMPOSITIONS FOR INCREASING HAIR GROWTH AND DECREASING HAIR LOSS” (ALVI ARMANI GENOMICS INC., priority 2010, published 2011):

Tested on: Hair follicles (HF)
Assay: Hair follicle (HF) explant growth assay
Type: cell-based, human
Conditions: HF elongation after 7-8 days; 20 ng/ml of each growth factor, hypoxanthine 2 μM; mean of 6-8 independent experiments
Experimental: Hair follicles (HF) were extracted from the occipital area of 6-8 individuals with hair loss. The HFs were processed to equivalent lengths and cultured in William's E medium supplemented with 100 units/ml penicillin G, 100 μg/ml streptomycin, 0.25 μg/ml amphotericin B, […], 1 ng/ml hydrocortisone; basic medium or control medium or basic medium supplemented with 20 ng/ml of each of IGF-1, FGF-2, PDGF, Wnt-3A (Wnt), Noggin (Nog), Ephrin A3 (Eph), SHH and BMP-6 as well as hypoxanthine (Hyx) at 2 μM final concentration. The “GF10 cocktail” or “GF10” includes all nine growth factors and hypoxanthine while the “GF7 cocktail” or “GF7” contains six growth factors (all growth factors of GF10 except for FGF-10, Eph and SHH) and hypoxanthine. Growth promotion was measured as elongation of the HF at the end of 7-8 days. All growth factors and hypoxanthine promoted growth individually and in combination (FIG. 1 and Table 1).

Molecule | Increase in growth (% control) Mean
IGF1: insulin-like growth factors-1, cellular growth factor | 39.31 % control
O=c1[nH]cnc2nc[nH]c12 [Hypx, hypoxanthine] | 104.1618 % control
FGF2: fibroblast growth factor-2 | 146.474 % control
PDGF: platelet-derived growth factor-AA | 69.56 % control
